ChEMBL document CHEMBL4483862, “Open-source discovery of chemical leads for next-generation chemoprotective antimalarials” (2018)

Tested on: Plasmodium berghei
Experiment: Luciferase/luciferin-expressing antifolate-resistant parasites were used to infect a culture of HepG2 cells that were pre-incubated with compounds. Infected hepatocytes emit light due to the luciferase reaction. Assay results are presented as the percent inhibition of light emission compared to control. […]
Assay type: functional
Settings: sporozoite; for IC90: read-out: LUCIFERASE INFECTION ASSAY - IC90

| SMILES | IC90 [µM] | further results |
| --- | --- | --- |
| O=C(NC1CC1)c1ccc(-c2cnc3c(NCC4CC4)nccn23)cc1 | 6.12 | IC50 (HEPG2TOX_HILL_SLOPE 1.1, HEPG2TOX_R_SQUARED 0.94, PBLUC_HILL_SLOPE 4.24, PBLUC_R_SQUARED 0.447, read-out: LUCIFERASE INFECTION ASSAY - IC50): 3.65 µM |
| Cc1nn2c(=O)cc(-c3ccccc3)[nH]c2c1-c1ccc(F)cc1 | 1.16 | IC50 (HEPG2TOX_HILL_SLOPE 1.12, HEPG2TOX_R_SQUARED 0.564, PBLUC_HILL_SLOPE 22.2, PBLUC_R_SQUARED 0.649, read-out: LUCIFERASE INFECTION ASSAY - IC50): 1.05 µM |
| C/C(=N\NC(N)=S)c1ccccn1 | 2.4 | IC50 (HEPG2TOX_HILL_SLOPE 1.14, HEPG2TOX_R_SQUARED 0.913, PBLUC_HILL_SLOPE 1.97, PBLUC_R_SQUARED 0.843, read-out: LUCIFERASE INFECTION ASSAY - IC50): 0.788 µM |
| Cc1ccc2c(Cl)cc(Cl)c(OCC(=O)c3c[nH]c(C(=O)N4CCCC4)c3)c2n1 | 8.53 | IC50 (HEPG2TOX_HILL_SLOPE 1.13, HEPG2TOX_R_SQUARED 0.949, PBLUC_HILL_SLOPE 1.15, PBLUC_R_SQUARED 0.754, read-out: LUCIFERASE INFECTION ASSAY - IC50): 1.25 µM |
| CCCCc1noc(C(C)Sc2nc(C(C)(C)C)nc3c2c(=O)n(C)c(=O)n3C)n1 (centres undefined) | > 10 | IC50 (HEPG2TOX_HILL_SLOPE 1.13, HEPG2TOX_R_SQUARED 0.608, PBLUC_HILL_SLOPE 1.15, PBLUC_R_SQUARED 0.641, read-out: LUCIFERASE INFECTION ASSAY - IC50): 3.92 µM |
| COc1ccc2ccccc2c1/C=N/Nc1ncc(C(F)(F)F)cc1Cl | > 10 | IC50 (HEPG2TOX_HILL_SLOPE 1.11, HEPG2TOX_R_SQUARED 0.987, read-out: LUCIFERASE INFECTION ASSAY - IC50): > 10 µM |
| CC(=O)c1cccc(-c2cnc3ccc(Cc4ccccc4)nn23)c1 | 8.78 | IC50 (HEPG2TOX_HILL_SLOPE 1.13, HEPG2TOX_R_SQUARED 0.363, PBLUC_HILL_SLOPE 4.01, PBLUC_R_SQUARED 0.469, read-out: LUCIFERASE INFECTION ASSAY - IC50): 5.08 µM |
| COc1cc(-c2cnc3cnc(-c4cccs4)cn23)cc(OC)c1OC | 2.1 | IC50 (HEPG2TOX_HILL_SLOPE 1.1, HEPG2TOX_R_SQUARED 0.918, PBLUC_HILL_SLOPE 2.83, PBLUC_R_SQUARED 0.515, read-out: LUCIFERASE INFECTION ASSAY - IC50): 0.964 µM |
| COc1ccc(-c2ccc(/C=N/Nc3ccc(F)cc3)s2)cc1 | 5.44 | IC50 (HEPG2TOX_HILL_SLOPE 1.1, HEPG2TOX_R_SQUARED 0.99, PBLUC_HILL_SLOPE 2.83, PBLUC_R_SQUARED 0.421, read-out: LUCIFERASE INFECTION ASSAY - IC50): 2.5 µM |
| Cn1c(-c2ccco2)nc2cnc(Nc3cccc(F)c3)cc21 | > 10 | IC50 (HEPG2TOX_HILL_SLOPE 1.1, HEPG2TOX_R_SQUARED 0.907, read-out: LUCIFERASE INFECTION ASSAY - IC50): > 10 µM |
| COc1ccc2cc(/C(C)=N/OC(=O)Nc3ccccc3)ccc2c1 | > 9.87 | IC50 (HEPG2TOX_HILL_SLOPE 1.11, HEPG2TOX_R_SQUARED 0.992, read-out: LUCIFERASE INFECTION ASSAY - IC50): > 9.87 µM |
| CCOc1ccc(/C=C/c2ccc3c(Cl)cc(Cl)c(O)c3n2)cc1OC | > 10 | IC50 (HEPG2TOX_HILL_SLOPE 1.14, HEPG2TOX_R_SQUARED 0.782, PBLUC_HILL_SLOPE 2.47, PBLUC_R_SQUARED 0.699, read-out: LUCIFERASE INFECTION ASSAY - IC50): 4.52 µM |
| O=C(C1=NNCC1c1ccccc1)c1ccc2ccccc2c1 (centres undefined) | > 11 | IC50 (HEPG2TOX_HILL_SLOPE 1.14, HEPG2TOX_R_SQUARED 0.985, PBLUC_HILL_SLOPE 1.79, PBLUC_R_SQUARED 0.146, read-out: LUCIFERASE INFECTION ASSAY - IC50): 5.28 µM |
| Cc1ccc2nc(NC(=O)c3cc(F)c(F)cc3F)c(C(=O)NC3CCCC3)n2c1 | 2.75 | IC50 (HEPG2TOX_HILL_SLOPE 1.15, HEPG2TOX_R_SQUARED 0.906, PBLUC_HILL_SLOPE 3.53, PBLUC_R_SQUARED 0.394, read-out: LUCIFERASE INFECTION ASSAY - IC50): 1.47 µM |
| COc1ccc(-c2cc(-c3cccc(NS(C)(=O)=O)c3)cnc2N)c(OC)c1 | 4.29 | IC50 (HEPG2TOX_HILL_SLOPE 1.15, HEPG2TOX_R_SQUARED 0.874, PBLUC_HILL_SLOPE 1.81, PBLUC_R_SQUARED 0.713, read-out: LUCIFERASE INFECTION ASSAY - IC50): 1.27 µM |
| C=CCN(c1ccc(C(=O)Nc2ccc(C(F)(F)F)cc2)cc1)S(C)(=O)=O | 7.12 | IC50 (HEPG2TOX_HILL_SLOPE 1.13, HEPG2TOX_R_SQUARED 0.916, PBLUC_HILL_SLOPE 2.09, PBLUC_R_SQUARED 0.336, read-out: LUCIFERASE INFECTION ASSAY - IC50): 2.49 µM |

| SMILES | IC90 [µM] | further results |
| --- | --- | --- |
| CCCCN(Cc1nc(=O)c2ccccc2[nH]1)C(=O)c1cc2c(F)cccc2s1 | > 10 | IC50 (HEPG2TOX_HILL_SLOPE 1.1, HEPG2TOX_R_SQUARED 0.0883, read-out: LUCIFERASE INFECTION ASSAY - IC50): > 10 µM |
| COc1cc(C)c(Nc2cc(-c3ccc(N(C)C)cc3)ncn2)cc1OC | 0.48 | IC50 (HEPG2TOX_HILL_SLOPE 1.1, HEPG2TOX_R_SQUARED 0.88, PBLUC_HILL_SLOPE 3.68, PBLUC_R_SQUARED 0.773, read-out: LUCIFERASE INFECTION ASSAY - IC50): 0.264 µM |
| N#Cc1ccc(Cc2cnc(NC(=O)c3ccc4ncsc4c3)s2)cc1 | 1.82 | IC50 (HEPG2TOX_HILL_SLOPE 1.13, HEPG2TOX_R_SQUARED 0.797, PBLUC_HILL_SLOPE 1.77, PBLUC_R_SQUARED 0.567, read-out: LUCIFERASE INFECTION ASSAY - IC50): 0.526 µM |
| ONC(=NC(=S)Nc1cc(Cl)ccc1Cl)c1ccccn1 | 9.52 | IC50 (HEPG2TOX_HILL_SLOPE 1.13, HEPG2TOX_R_SQUARED 0.776, PBLUC_HILL_SLOPE 15.8, PBLUC_R_SQUARED 0.357, read-out: LUCIFERASE INFECTION ASSAY - IC50): 8.29 µM |
| c1ccc(Oc2cccc(Nc3nccc4nc(-c5ccccc5)[nH]c34)c2)cc1 | 3.51 | IC50 (HEPG2TOX_HILL_SLOPE 1.11, HEPG2TOX_R_SQUARED 0.909, PBLUC_HILL_SLOPE 45.8, PBLUC_R_SQUARED 0.688, read-out: LUCIFERASE INFECTION ASSAY - IC50): 3.34 µM |
| CCCNC(=O)c1c(NC(=O)c2ccccc2)nc2ccc(C)cn12 | 7.77 | IC50 (HEPG2TOX_HILL_SLOPE 1.15, HEPG2TOX_R_SQUARED 0.736, PBLUC_HILL_SLOPE 3.57, PBLUC_R_SQUARED 0.289, read-out: LUCIFERASE INFECTION ASSAY - IC50): 4.2 µM |
| COc1cc(C(=O)NNC(=O)c2ccc(Br)cc2)ccc1OCc1c(C)noc1C | 7.1 | IC50 (HEPG2TOX_HILL_SLOPE 1.09, HEPG2TOX_R_SQUARED 0.959, PBLUC_HILL_SLOPE 2.18, PBLUC_R_SQUARED 0.498, read-out: LUCIFERASE INFECTION ASSAY - IC50): 2.59 µM |
| Cc1ccc(NC(=O)NC(=O)c2c(-c3snnc3C)noc2C)cc1 | > 9.23 | IC50 (HEPG2TOX_HILL_SLOPE 1.11, HEPG2TOX_R_SQUARED 0.954, PBLUC_HILL_SLOPE 1.54, PBLUC_R_SQUARED 0.355, read-out: LUCIFERASE INFECTION ASSAY - IC50): 2.53 µM |
| O=C(Nc1ncc(Cc2ccc(Br)cc2)s1)c1ccc2n[nH]nc2c1 | 1.27 | IC50 (HEPG2TOX_HILL_SLOPE 1.09, HEPG2TOX_R_SQUARED 0.989, PBLUC_HILL_SLOPE 1.74, PBLUC_R_SQUARED 0.819, read-out: LUCIFERASE INFECTION ASSAY - IC50): 0.359 µM |
| CC(C)(C)NC(=S)N/N=C/c1cc(Cl)cc(Cl)c1O | 6.66 | IC50 (HEPG2TOX_HILL_SLOPE 1.14, HEPG2TOX_R_SQUARED 0.984, PBLUC_HILL_SLOPE 2.14, PBLUC_R_SQUARED 0.291, read-out: LUCIFERASE INFECTION ASSAY - IC50): 2.39 µM |
| CCOc1cc2ccccc2cc1C(=O)NNC(=O)c1ccccn1 | 1.23 | IC50 (HEPG2TOX_HILL_SLOPE 1.13, 0.817, HEPG2TOX_R_SQUARED 0.858, 0.909, PBLUC_HILL_SLOPE 4.86, PBLUC_R_SQUARED 0.852, read-out: LUCIFERASE INFECTION ASSAY - IC50): 0.78 µM |
| COc1cc(-c2nccc3n[nH]c(C)c23)cc(OC)c1OC | > 10 | IC50 (HEPG2TOX_HILL_SLOPE 1.13, HEPG2TOX_R_SQUARED 0.879, read-out: LUCIFERASE INFECTION ASSAY - IC50): > 10 µM |
| O=C(Nc1nc2ccccn2c1C(=O)NC1CCCCC1)c1cc(F)ccc1F | 2.12 | IC50 (HEPG2TOX_HILL_SLOPE 1.14, HEPG2TOX_R_SQUARED 0.869, PBLUC_HILL_SLOPE 2.93, PBLUC_R_SQUARED 0.682, read-out: LUCIFERASE INFECTION ASSAY - IC50): 1 µM |
| CCc1sc(C(=O)Nc2cnc3ccccc3c2)cc1C | > 10 | IC50 (HEPG2TOX_HILL_SLOPE 1.13, HEPG2TOX_R_SQUARED 0.365, PBLUC_HILL_SLOPE 0.275, PBLUC_R_SQUARED 0.613, read-out: LUCIFERASE INFECTION ASSAY - IC50): 0.46 µM |
| CC(=O)c1cccc(-c2cnc3ccc(-c4cncnc4)nn23)c1 | 3.69 | IC50 (HEPG2TOX_HILL_SLOPE 1.11, HEPG2TOX_R_SQUARED 0.828, PBLUC_HILL_SLOPE 6.15, PBLUC_R_SQUARED 0.481, read-out: LUCIFERASE INFECTION ASSAY - IC50): 2.58 µM |
| Cn1c(CC(=O)NNC(=O)c2ccccc2Nc2ccccc2)nc2ccccc21 | 3.3 | IC50 (HEPG2TOX_HILL_SLOPE 1.15, HEPG2TOX_R_SQUARED 0.894, PBLUC_HILL_SLOPE 16.3, PBLUC_R_SQUARED 0.746, read-out: LUCIFERASE INFECTION ASSAY - IC50): 2.88 µM |
